Each block holds one molecule with its values, some of them ahead of it.
How the values were obtained:
human GLP-1 R = molecular target: T1, human GLP-1 R (Homo sapiens, UniProt P43220); experiment: cAMP signal activation in human GLP1R cells (hGLP1R-U2OS, HTRF); assay type: cell-based
T1 construct: expressed in transfected cells
Protocol: A cell line stably expressing human GLP1 R (hGLP1R-U2OS) was used in this experiment. The cells were cultured in a growth medium (complete medium, DMEM+10% FBS+500 μg/mL G418 (Promega)) in an incubator at 37° C. and has 5% CO2 saturated humidity.
hGLP1R-U2OS was inoculated into 384-well plate with 1.0×10^4 cells/well (5 μL) (cell working solution: DMEM+0.1% BSA+1 mM IBMX (available from Bide Pharmatech Ltd.)), and was placed in an incubator at 37° C. and held for 30 min. The compounds to be tested were diluted stage-by-stage with Stimulation Buffer 1 (1×) in the kit, and the diluted compounds were added to the culture plate with 5 μL/well. They were incubated in an incubator at 37° C. for 30 min. Then, 5 μL/well of cAMP-d2 prepared with Lysis & Detection buffer and 5 μL/well of Anti CAMP-Cryptate working solution were added successively, and they were incubated at room temperature for 60 min before detection.
The ratio of signal emitted by donor to […] in each well was calculated as follows: HTRF rate=signal at 665 nm/signal at 620 nm×104, and then the HTRF rate was converted into a reaction rate (%). The concentration-response curve of each Example compound was created by a 4-parameter equation as Y=Bottom+(Top−Bottom)/(1+10^((Log IC50−X)*HillSlope)), and the half maximal (50%) effective concentration (EC50) was calculated.

[1] = Pharmacokinetic study on rat; assay type: in vivo, SD rats; settings: for F: 5 mg/kg p.o vs 1 mg/kg i.v; for AUC(0-t) / Cmax / clearance / half-life: male, Sprague-Dawley (SD), plasma
Description: • SD rats: male, 180-250 g, purchased from Beijing Vital River Laboratory Animal Technology Co., Ltd. • Reagents: DMSO (dimethyl sulfoxide), PEG-400 (polyethylene glycol 400), physiological saline, heparin, acetonitrile, formic acid, and propranolol (internal standard), all of which are commercially available. • Instruments: Thermo Fisher Scientific LC-MS (U300 UPLC, TSQ QUANTUMN ULTRA triple quadrupole mass spectrometer).
A compound was weighed and dissolved in a DMSO-PEG-400-physiological saline (5:60:35, v/v/v) system. After the rats were administered with the compound intravenously or by gavage, 200 μL of venous blood samples were collected at 15 min, 30 min, 1 h, 2 h, 5 h, 7 h, and 24 h (for i.v. group an additional collection was performed at 5 min) in heparinized EP tubes respectively, which were centrifuged at 12,000 rpm for 2 min, and the plasma was frozen at −80° C. for further testing. A certain amount of the test substance was precisely weighed and dissolved in DMSO to obtain a stock solution with a concentration of 2 mg/mL. An appropriate amount of the stock solution of the compound was accurately pipetted and diluted with acetonitrile to prepare a standard series solution. 20 μL of each of the above standard series solution was accurately pipetted, added with 180 μL of blank plasma, and vortexed mixed to prepare plasma samples corresponding to plasma concentrations of 0.3, 1, 3, 10, 30, 100, 300, 1000, 3000 ng/mL. Two-sample analysis was performed for each concentration to establish a standard curve. 30 μL of plasma (for samples that are obtained at 5 min, 15 min, 30 min, and 1 h after intravenous administration, the plasma were diluted 10 times) was taken, added with 200 μL of a solution of internal standard propranolol in acetonitrile (50 ng/ml), and vortexed mixed. The mixture was then added with 100 μL of pure water, and vortexed and mixed again. It was centrifuged at 4000 rpm for 5 min, and the supernatant was collected for LC-MS analysis. LC-MS detection conditions were as follows. • Chromatographic column: Thermo Scientific HYPERSIL GOLD C-18 UPLC column, 100*2.1 mm, 1.7 μm. • Mobile phase: water (with 0.1% formic acid)-acetonitrile; gradient elution was performed according to the table below.
After blood drug concentrations was detected by LC-MS, WinNonlin 6.1 software was used to calculate pharmacokinetic parameters based on non-compartmental model.

T1 sequence (P43220 24-463): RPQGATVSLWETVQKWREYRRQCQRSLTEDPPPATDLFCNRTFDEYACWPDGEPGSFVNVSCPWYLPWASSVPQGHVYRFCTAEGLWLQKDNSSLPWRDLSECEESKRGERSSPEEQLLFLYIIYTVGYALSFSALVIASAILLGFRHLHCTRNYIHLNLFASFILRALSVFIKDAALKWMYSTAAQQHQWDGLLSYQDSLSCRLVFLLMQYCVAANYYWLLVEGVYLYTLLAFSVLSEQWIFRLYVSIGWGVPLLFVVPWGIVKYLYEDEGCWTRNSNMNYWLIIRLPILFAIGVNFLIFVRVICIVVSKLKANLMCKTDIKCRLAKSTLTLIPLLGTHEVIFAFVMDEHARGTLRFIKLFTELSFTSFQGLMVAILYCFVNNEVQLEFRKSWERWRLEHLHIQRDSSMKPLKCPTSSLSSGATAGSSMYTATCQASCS

SMILES: C[C@@H](c1nc2ccc(C(=O)O)cc2n1C[C@@H]1CCO1)N1CCC(c2cccc(OCc3ccc4cnn(CC(F)F)c4c3)n2)CC1 [Example 8, 2-((S)-1-(4-(6-((1-(2,2-difluoroethyl)-1H-indazol-6-yl)methoxy)pyridin-2-yl)piperidin-1-yl)ethyl)-1-(((S)-oxetan-2-yl)methyl)-1H-benzo[d]imidazol-6-carboxylic acid]
EC50 (human GLP-1 R): 10.3 nM

SMILES: C[C@@H](c1nc2ccc(C(=O)O)cc2n1C[C@@H]1CCO1)N1CCC(c2cccc(OCc3ccc(Br)cc3F)n2)CC1 [Example 13, 2-((S)-1-(4-(6-((4-bromo-2-fluorobenzyl)oxy)pyridin-2-yl)piperidin-1-yl)ethyl)-1-(((S)-oxetan-2-yl)methyl)-1H-benzo[d]imidazol-6-carboxylic acid]
EC50 (human GLP-1 R): 18.7 nM

SMILES: C[C@@H](c1nc2ccc(C(=O)O)nc2n1C[C@@H]1CCO1)N1CCC(c2cccc(OCc3cccc4cc(F)cnc34)n2)CC1 [Example 19, 2-((S)-1-(4-(6-((3-fluoroquinolin-8-yl)methoxy)pyridin-2-yl)piperidin-1-yl)ethyl)-3-(((S)-oxetan-2-yl)methyl)-3H-imidazo[4,5-b]pyridin-5-carboxylic acid]
EC50 (human GLP-1 R): 3.94 nM

SMILES: C[C@@H](c1nc2ccc(C(=O)O)cc2n1C[C@@H]1CCO1)N1CCC(c2cccc(OCc3ccc(Cl)cc3F)n2)C(O)C1 (stereo partly drawn) [Example 31, 2-((1S)-1-((3,4-trans)-4-(6-((4-chloro-2-fluorobenzyl)oxy)pyridin-2-yl)-3-hydroxypiperidin-1-yl)ethyl)-1-(((S)-oxetan-2-yl)methyl)-1H-benzo[d]imidazol-6-carboxylic acid]
EC50 (human GLP-1 R): 14.4 nM

SMILES: C[C@@H](c1nc2ccc(C(=O)O)cc2n1C[C@@H]1CCO1)N1CCN(c2cccc(OCc3ccc(Cl)cc3F)n2)CC1 [Example 39A]
EC50 (human GLP-1 R): 15.5 nM

SMILES: C[C@@H](c1nc2ccc(C(=O)O)cc2n1C[C@@H]1CCO1)N1CCN(c2ncc(F)c(OCc3ccc(C#N)cc3F)n2)CC1 [Example 42, 2-((S)-1-(4-(4-((4-cyano-2-fluorobenzyl)oxy)-5-fluoropyrimidin-2-yl)piperazin-1-yl)ethyl)-1-(((S)-oxetan-2-yl)methyl)-1H-benzo[d]imidazol-6-carboxylic acid]
EC50 (human GLP-1 R): 12 nM

SMILES: C[C@@H](c1nc2ccc(C(=O)O)cc2n1C[C@@H]1CCO1)N1CCN(c2cc(C(F)(F)F)cc(OCc3ccc(C#N)cc3F)n2)CC1 [Example 44, 2-((S)-1-(4-(6-((4-cyano-2-fluorobenzyl)oxy)-4-(trifluoromethyl)pyridin-2-yl)piperazin-1-yl)ethyl)-1-(((S)-oxetan-2-yl)methyl)-1H-benzo[d]imidazol-6-carboxylic acid]
F [1]: 57.3%
AUC(0-t) ([1]; iv, 1 mg/kg, i.v): 2260 ng·h/mL
Cmax ([1]; iv, 1 mg/kg, i.v): 4360 ng/mL
clearance ([1]; iv, 1 mg/kg, i.v): 7.37 mL/min/kg
half-life ([1]; iv, 1 mg/kg, i.v): 0.69 h
AUC(0-t) ([1]; po, 5 mg/kg, p.o): 6470 ng·h/mL
Cmax ([1]; po, 5 mg/kg, p.o): 1410 ng/mL
half-life ([1]; po, 5 mg/kg, p.o): 2.9 h

SMILES: C[C@@H](c1nc2ccc(C(=O)O)cc2n1C[C@@H]1CCO1)N1CCN(c2cc(C#N)cc(OCc3ccc(C#N)cc3F)n2)CC1 [Example 45, 2-((S)-1-(4-(4-cyano-6-((4-cyano-2-fluorobenzyl)oxo)pyridin-2-yl)piperazin-1-yl)ethyl)-1-(((S)-oxetan-2-yl)methyl)-1H-benzo[d]imidazol-6-carboxylic acid]
EC50 (human GLP-1 R): 24.6 nM

Further molecules by falling EC50 (human GLP-1 R), results first:

EC50 (human GLP-1 R): 3.48 nM
SMILES: C[C@@H](c1nc2ccc(C(=O)O)cc2n1C[C@@H]1CCO1)N1CCC(c2cccc(OCc3ccc4cnn(CC(F)(F)F)c4c3)n2)CC1 [Example 9, 1-(((S)-oxetan-2-yl)methyl)-2-((S)-1-(4-(6-((1-(2,2,2-trifluoroethyl)-1H-indazol-6-yl)methoxy)pyridin-2-yl)piperidin-1-yl)ethyl)-1H-benzo[d]imidazol-6-carboxylic acid]

EC50 (human GLP-1 R): 3.45 nM
SMILES: C[C@@H](c1nc2ccc(C(=O)O)nc2n1C[C@@H]1CCO1)N1CCC(c2cccc(OCc3ccc4cnn(CC(F)F)c4c3)n2)CC1 [Example 11, 2-((S)-1-(4-(6-((1-(2,2-difluoroethyl)-1H-indazol-6-yl)methoxy)pyridin-2-yl)piperidin-1-yl)ethyl)-3-(((S)-oxetan-2-yl)methyl)-3H-imidazo[4,5-b]pyridin-5-carboxylic acid]

EC50 (human GLP-1 R): 3.18 nM
F [1]: 63.5%
AUC(0-t) ([1]; iv, 1 mg/kg, i.v): 1250 ng·h/mL
Cmax ([1]; iv, 1 mg/kg, i.v): 2330 ng/mL
clearance ([1]; iv, 1 mg/kg, i.v): 13.3 mL/min/kg
half-life ([1]; iv, 1 mg/kg, i.v): 0.71 h
AUC(0-t) ([1]; po, 5 mg/kg, p.o): 3970 ng·h/mL
Cmax ([1]; po, 5 mg/kg, p.o): 1290 ng/mL
half-life ([1]; po, 5 mg/kg, p.o): 3.11 h
SMILES: C[C@@H](c1nc2ccc(C(=O)O)cc2n1C[C@@H]1CCO1)N1CCC(c2cccc(OCc3ccc(C#N)cc3F)n2)CC1 [Example 2A, 2-((S)-1-(4-(6-((4-cyano-2-fluorobenzyl)oxy)pyridin-2-yl)piperidin-1-yl)ethyl)-1-(((S)-oxetan-2-yl)methyl)-1H-benzo[d]imidazol-6-carboxylic acid]

EC50 (human GLP-1 R): 2.92 nM
SMILES: C[C@@H](c1nc2ccc(C(=O)O)nc2n1C[C@@H]1CCO1)N1CCC(c2cccc(OCc3ccc4cnn(CC(F)(F)F)c4c3)n2)CC1 [Example 17, 3-(((S)-oxetan-2-yl)methyl)-2-((S)-1-(4-(6-((1-(2,2,2-trifluoroethyl)-1H-indazol-6-yl)methoxy)pyridin-2-yl)piperidin-1-yl)ethyl)-3H-imidazo[4,5-b]pyridin-5-carboxylic acid]

EC50 (human GLP-1 R): 2.66 nM
SMILES: C[C@@H](c1nc2ccc(C(=O)O)nc2n1C[C@@H]1CCO1)N1CCC(c2cccc(OCc3ccnc4cc(F)ccc34)n2)CC1 [Example 18, 2-((S)-1-(4-(6-((7-fluoroquinolin-4-yl)methoxy)pyridin-2-yl)piperidin-1-yl)ethyl)-3-(((S)-oxetan-2-yl)methyl)-3H-imidazo[4,5-b]pyridine-5-carboxylic acid]

EC50 (human GLP-1 R): 2.57 nM
SMILES: C[C@@H](c1nc2ccc(C(=O)O)nc2n1C[C@@H]1CCO1)N1CCC(c2cccc(OCc3ccc(C#N)cc3F)n2)CC1 [Example 15, 2-((S)-1-(4-(6-((4-cyano-2-fluorobenzyl)oxy)pyridin-2-yl)piperidin-1-yl)ethyl)-3-(((S)-oxetan-2-yl)methyl)-3H-imidazo[4,5-b]pyridin-5-carboxylic acid]

EC50 (human GLP-1 R): 1.71 nM
F [1]: 49.0%
AUC(0-t) ([1]; iv, 1 mg/kg, i.v): 2430 ng·h/mL
Cmax ([1]; iv, 1 mg/kg, i.v): 2310 ng/mL
clearance ([1]; iv, 1 mg/kg, i.v): 6.88 mL/min/kg
half-life ([1]; iv, 1 mg/kg, i.v): 2.89 h
AUC(0-t) ([1]; po, 5 mg/kg, p.o): 5950 ng·h/mL
Cmax ([1]; po, 5 mg/kg, p.o): 747 ng/mL
half-life ([1]; po, 5 mg/kg, p.o): 3.4 h
SMILES: C[C@@H](c1nc2ccc(C(=O)O)cc2n1C[C@@H]1CCO1)N1CCC(c2cccc(OCc3ccc(Cl)cc3F)n2)CC1 [Example 1A, 2-((S)-1-(4-(6-((4-chloro-2-fluorobenzyl)oxy)pyridin-2-yl)piperidin-1-yl)ethyl)-1-(((S)-oxetan-2-yl)methyl)-1H-benzo[d]imidazol-6-carboxylic acid]

EC50 (human GLP-1 R): 1.04 nM
F [1]: 72.8%
AUC(0-t) ([1]; iv, 1 mg/kg, i.v): 5770 ng·h/mL
Cmax ([1]; iv, 1 mg/kg, i.v): 4730 ng/mL
clearance ([1]; iv, 1 mg/kg, i.v): 2.88 mL/min/kg
half-life ([1]; iv, 1 mg/kg, i.v): 3.87 h
AUC(0-t) ([1]; po, 5 mg/kg, p.o): 21000 ng·h/mL
Cmax ([1]; po, 5 mg/kg, p.o): 3470 ng/mL
half-life ([1]; po, 5 mg/kg, p.o): 2.76 h
SMILES: C[C@@H](c1nc2ccc(C(=O)O)cc2n1C[C@@H]1CCO1)N1CCC(c2cccc(OCc3cc(F)ccc3F)n2)CC1 [Example 5, 2-((S)-1-(4-(6-((2,5-difluorobenzyl)oxy)pyridin-2-yl)piperidin-1-yl)ethyl)-1-(((S)-oxetan-2-yl)methyl)-1H-benzo[d]imidazol-6-carboxylic acid]

Reference: patent publication US20240246959A1, “BENZIMIDAZOLE DERIVATIVE AND PREPARATION METHOD THEREFOR AND MEDICAL USE THEREOF” (Shenzhen Salubris Pharmaceuticals Co., Ltd., priority 2020, published 2024)
